Patent US12077503B2, “Substituted cyclic amides and their use as herbicides” (FMC CORPORATION, priority 2015, dated 2024)

Experiments:
Format in all cases: in vivo
[1] = test system: barnyardgrass (Echinochloa crus-galli); experiment: Test G Pre-Emergence Protocol; conditions: Echinochloa crus-galli, pre-emergence, 312 h, evaluated after 13 days; for pest or weed control at 15.625 g/ha: 15.625 g ai/ha, read-out: Barnyard grass damage rating (100=total damage to plant; 0=no damage to plant); for pest or weed control at 62.5 g/ha: 62.5 g ai/ha, 100=total damage to plant, 0=no damage to plant, read-out: plant damage rating, Barnyardgrass; for pest or weed control at 250 g/ha: 250 g ai/ha, read-out: Barnyardgrass damage rating (100=total damage to plant; 0=no damage to plant)
In short: (§1)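 Visual injury (0–100) at day 13 after a single pre-emergence spray. Rates: 15.625, 62.5, 250 g/ha in acetone–water 50:50 with 0.5% Tween 20. Growth conditions: 24/16° C, 14 h light, 65% humidity.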

[2] = test system: corn (Zea mays); experiment: Test G Pre-Emergence Protocol; conditions: Zea mays, pre-emergence, 312 h, evaluated after 13 days; for plant injury at 15.625 g/ha: 15.625 g ai/ha; for plant injury at 15.625 g/ha / plant injury at 250 g/ha: read-out: Corn damage rating (100=total damage to plant; 0=no damage to plant); for plant injury at 62.5 g/ha: 62.5 g ai/ha, 100=total damage to plant, 0=no damage to plant, read-out: plant damage rating, Corn; for plant injury at 250 g/ha: 250 g ai/ha
In short: as §1

[3] = test system: giant foxtail (Setaria faberi); experiment: Test G Pre-Emergence Protocol; conditions: Setaria faberi, pre-emergence, 312 h, evaluated after 13 days; for pest or weed control at 15.625 g/ha: 15.625 g ai/ha; for pest or weed control at 15.625 g/ha / pest or weed control at 250 g/ha: read-out: Foxtail, Giant damage rating (100=total damage to plant; 0=no damage to plant); for pest or weed control at 62.5 g/ha: 62.5 g ai/ha, 100=total damage to plant, 0=no damage to plant, read-out: plant damage rating, Foxtail, Giant; for pest or weed control at 250 g/ha: 250 g ai/ha
In short: as §1

[4] = test system: ivy-leaved morning glory (Ipomoea hederacea); experiment: Test G Pre-Emergence Protocol; conditions: Ipomoea, pre-emergence, 312 h, evaluated after 13 days; for pest or weed control at 15.625 g/ha: 15.625 g ai/ha, read-out: Morning-glory, Ivy-leaved damage rating (100=total damage to plant; 0=no damage to plant); for pest or weed control at 62.5 g/ha: 62.5 g ai/ha, 100=total damage to plant, 0=no damage to plant, read-out: plant damage rating, Morningglory, Ivy-leaved; for pest or weed control at 250 g/ha: 250 g ai/ha, read-out: Morningglory, Ivy-leaved damage rating (100=total damage to plant; 0=no damage to plant)
In short: as §1

[5] = test system: redroot pigweed (Amaranthus retroflexus); experiment: Test G Pre-Emergence Protocol; conditions: Amaranthus retroflexus, pre-emergence, 312 h, evaluated after 13 days; for pest or weed control at 15.625 g/ha: 15.625 g ai/ha; for pest or weed control at 15.625 g/ha / pest or weed control at 250 g/ha: read-out: Pigweed, Redroot damage rating (100=total damage to plant; 0=no damage to plant); for pest or weed control at 62.5 g/ha: 62.5 g ai/ha, 100=total damage to plant, 0=no damage to plant, read-out: plant damage rating, Pigweed, Redroot; for pest or weed control at 250 g/ha: 250 g ai/ha
In short: as §1

[6] = test system: velvetleaf (Abutilon theophrasti); experiment: Test G Pre-Emergence Protocol; conditions: Abutilon theophrasti, pre-emergence, 312 h, evaluated after 13 days; for pest or weed control at 15.625 g/ha: 15.625 g ai/ha; for pest or weed control at 15.625 g/ha / pest or weed control at 250 g/ha: read-out: Velvetleaf damage rating (100=total damage to plant; 0=no damage to plant); for pest or weed control at 62.5 g/ha: 62.5 g ai/ha, 100=total damage to plant, 0=no damage to plant, read-out: plant damage rating, Velvetleaf; for pest or weed control at 250 g/ha: 250 g ai/ha
In short: as §1

[7] = test system: barnyardgrass (Echinochloa crus-galli); experiment: Test G Post-Emergence Protocol; conditions: Echinochloa crus-galli, post-emergence, 312 h; for pest or weed control at 15.625 g/ha: 15.625 g ai/ha, evaluated after 13 days (100=total damage to plant; 0=no damage to plant), read-out: Barnyardgrass damage rating; for pest or weed control at 62.5 g/ha: 62.5 g ai/ha, read-out: Barnyardgrass damage rating (100=total damage to plant; 0=no damage to plant); for pest or weed control at 62.5 g/ha / pest or weed control at 250 g/ha: evaluated after 13 days; for pest or weed control at 250 g/ha: 250 g ai/ha, read-out: damage to plant, Barnyardgrass (100=total damage to plant; 0=no damage to plant)
In short: (§2)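 Sow in soil; grow 8 d (24/16 °C, 14 h light, 65% humidity); spray 15.625/62.5/250 g/ha in acetone:water 50:50 + 0.5% Tween 20; grow on, water twice daily; score damage 0–100 at 13 d.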

[8] = test system: corn (Zea mays); experiment: Test G Post-Emergence Protocol; conditions: Zea mays, post-emergence, 312 h; for plant injury at 15.625 g/ha: 15.625 g ai/ha, evaluated after 13 days (100=total damage to plant; 0=no damage to plant), read-out: Corn damage rating; for plant injury at 62.5 g/ha: 62.5 g ai/ha, read-out: Corn damage rating (100=total damage to plant; 0=no damage to plant); for plant injury at 62.5 g/ha / plant injury at 250 g/ha: evaluated after 13 days; for plant injury at 250 g/ha: 250 g ai/ha, read-out: damage to plant, Corn (100=total damage to plant; 0=no damage to plant)
In short: as §2

[9] = test system: giant foxtail (Setaria faberi); experiment: Test G Post-Emergence Protocol; conditions: Setaria faberi, post-emergence, 312 h; for pest or weed control at 15.625 g/ha: 15.625 g ai/ha, evaluated after 13 days (100=total damage to plant; 0=no damage to plant), read-out: Foxtail, Giant damage rating; for pest or weed control at 62.5 g/ha: 62.5 g ai/ha, read-out: Foxtail, Giant damage rating (100=total damage to plant; 0=no damage to plant); for pest or weed control at 62.5 g/ha / pest or weed control at 250 g/ha: evaluated after 13 days; for pest or weed control at 250 g/ha: 250 g ai/ha, read-out: damage to plant, Foxtail, Giant (100=total damage to plant; 0=no damage to plant)
In short: as §2

[10] = test system: ivy-leaved morning glory (Ipomoea hederacea); experiment: Test G Post-Emergence Protocol; conditions: Ipomoea, post-emergence, 312 h; for pest or weed control at 15.625 g/ha: 15.625 g ai/ha, evaluated after 13 days (100=total damage to plant; 0=no damage to plant), read-out: Morningglory, Ivy-leaved damage rating; for pest or weed control at 62.5 g/ha: 62.5 g ai/ha, read-out: Morningglory, Ivy-leaved damage rating (100=total damage to plant; 0=no damage to plant); for pest or weed control at 62.5 g/ha / pest or weed control at 250 g/ha: evaluated after 13 days; for pest or weed control at 250 g/ha: 250 g ai/ha, read-out: damage to plant, Morningglory, Ivy-leaved (100=total damage to plant; 0=no damage to plant)
In short: as §2

[11] = test system: redroot pigweed (Amaranthus retroflexus); experiment: Test G Post-Emergence Protocol; conditions: Amaranthus retroflexus, post-emergence, 312 h; for pest or weed control at 15.625 g/ha: 15.625 g ai/ha, evaluated after 13 days (100=total damage to plant; 0=no damage to plant), read-out: Pigweed, Redroot damage rating; for pest or weed control at 62.5 g/ha: 62.5 g ai/ha, read-out: Pigweed, Redroot damage rating (100=total damage to plant; 0=no damage to plant); for pest or weed control at 62.5 g/ha / pest or weed control at 250 g/ha: evaluated after 13 days; for pest or weed control at 250 g/ha: 250 g ai/ha, read-out: damage to plant, Pigweed, Redroot (100=total damage to plant; 0=no damage to plant)
In short: as §2

[12] = test system: velvetleaf (Abutilon theophrasti); experiment: Test G Post-Emergence Protocol; conditions: Abutilon theophrasti, post-emergence, 312 h; for pest or weed control at 15.625 g/ha: 15.625 g ai/ha, evaluated after 13 days (100=total damage to plant; 0=no damage to plant), read-out: Velvetleaf damage rating; for pest or weed control at 62.5 g/ha: 62.5 g ai/ha, read-out: Velvetleaf damage rating (100=total damage to plant; 0=no damage to plant); for pest or weed control at 62.5 g/ha / pest or weed control at 250 g/ha: evaluated after 13 days; for pest or weed control at 250 g/ha: 250 g ai/ha, read-out: damage to plant, Velvetleaf (100=total damage to plant; 0=no damage to plant)
In short: as §2

| SMILES | pest or weed control at 15.625 g/ha [1] | pest or weed control at 62.5 g/ha [1] | pest or weed control at 250 g/ha [1] | plant injury at 15.625 g/ha [2] | plant injury at 62.5 g/ha [2] | plant injury at 250 g/ha [2] | pest or weed control at 15.625 g/ha [3] | pest or weed control at 62.5 g/ha [3] | pest or weed control at 250 g/ha [3] | pest or weed control at 15.625 g/ha [4] | pest or weed control at 62.5 g/ha [4] | pest or weed control at 250 g/ha [4] | pest or weed control at 15.625 g/ha [5] | pest or weed control at 62.5 g/ha [5] | pest or weed control at 250 g/ha [5] | pest or weed control at 15.625 g/ha [6] | pest or weed control at 62.5 g/ha [6] | pest or weed control at 250 g/ha [6] | pest or weed control at 15.625 g/ha [7] | pest or weed control at 62.5 g/ha [7] | further results |
| --- | --- | --- | --- | --- | --- | --- | --- | --- | --- | --- | --- | --- | --- | --- | --- | --- | --- | --- | --- | --- | --- |
| COC(=O)c1sccc1NC(=O)[C@@H]1C(=O)N(C)C[C@H]1c1ccc(C(F)(F)F)cc1 (racemic) [Compound 1621] | 0% | 0% | 0% | 0% | 0% | 0% | 0% | 0% | 0% | 0% | 0% | 0% | 0% | 0% | 0% | 0% | 0% | 0% | 10% | 30% | pest or weed control at 250 g/ha [7]: 30%; plant injury at 15.625 g/ha [8]: 0%; plant injury at 62.5 g/ha [8]: 0%; plant injury at 250 g/ha [8]: 0%; pest or weed control at 15.625 g/ha [9]: 10%; pest or weed control at 62.5 g/ha [9]: 40%; pest or weed control at 250 g/ha [9]: 40%; pest or weed control at 15.625 g/ha [10]: 0%; pest or weed control at 62.5 g/ha [10]: 0%; pest or weed control at 250 g/ha [10]: 0%; pest or weed control at 15.625 g/ha [11]: 0%; pest or weed control at 62.5 g/ha [11]: 20%; pest or weed control at 250 g/ha [11]: 10%; pest or weed control at 15.625 g/ha [12]: 0%; pest or weed control at 62.5 g/ha [12]: 0%; pest or weed control at 250 g/ha [12]: 0% |
| CN1C[C@@H](c2ccc(C(F)(F)F)cc2)[C@H](C(=O)Nc2ccc(F)c(Cl)c2F)C1=O (racemic) [Compound 1628] | 10% | 0% | 70% | 0% | 0% | 0% | 50% | 50% | 80% | 20% | 0% | 20% | 0% | 30% | 50% | 0% | 0% | 0% | 30% | 70% | pest or weed control at 250 g/ha [7]: 70%; plant injury at 15.625 g/ha [8]: 0%; plant injury at 62.5 g/ha [8]: 0%; plant injury at 250 g/ha [8]: 50%; pest or weed control at 15.625 g/ha [9]: 70%; pest or weed control at 62.5 g/ha [9]: 80%; pest or weed control at 250 g/ha [9]: 80%; pest or weed control at 15.625 g/ha [10]: 20%; pest or weed control at 62.5 g/ha [10]: 20%; pest or weed control at 250 g/ha [10]: 50%; pest or weed control at 15.625 g/ha [11]: 10%; pest or weed control at 62.5 g/ha [11]: 50%; pest or weed control at 250 g/ha [11]: 60%; pest or weed control at 15.625 g/ha [12]: 30%; pest or weed control at 62.5 g/ha [12]: 20%; pest or weed control at 250 g/ha [12]: 20% |
| Cc1c(NC(=O)[C@@H]2C(=O)N(C)C[C@H]2c2ccc(C(F)(F)F)cc2)ccnc1Cl (racemic) [Compound 1631] | 0% | 0% | 0% | 0% | 10% | 0% | 0% | 10% | 70% | 0% | 20% | 30% | 0% | 20% | 10% | 0% | 0% | 0% | 0% | 10% | pest or weed control at 250 g/ha [7]: 10%; plant injury at 15.625 g/ha [8]: 0%; plant injury at 62.5 g/ha [8]: 0%; plant injury at 250 g/ha [8]: 10%; pest or weed control at 15.625 g/ha [9]: 0%; pest or weed control at 62.5 g/ha [9]: 60%; pest or weed control at 250 g/ha [9]: 70%; pest or weed control at 15.625 g/ha [10]: 0%; pest or weed control at 62.5 g/ha [10]: 20%; pest or weed control at 250 g/ha [10]: 20%; pest or weed control at 15.625 g/ha [11]: 0%; pest or weed control at 62.5 g/ha [11]: 20%; pest or weed control at 250 g/ha [11]: 20%; pest or weed control at 15.625 g/ha [12]: 0%; pest or weed control at 62.5 g/ha [12]: 10%; pest or weed control at 250 g/ha [12]: 0% |
